Assay results taken from article PMC4721923 (PLoS ONE, 2015).
Read-outs that look alike come from different tables or passages of the source.

What was measured:
Assay type in all cases: cell-based, human
p53 in NCI-H460 cells = experiment: p53 expression by immunoblotting, NCI-H460; conditions: NCI-H460 nuclear extracts, 24 hours
Experimental: The expression of the tumor suppressor p53 by NCI-H460 and HT-29 cells was determined after incubating the cells with compounds 1, 2, 4 and 5 at different concentrations for 24 hours. The cells (from a 10-cm culture dish, 70% confluency) were washed twice with PBS and harvested by scraping after addition of ice-cold buffer A (10 mM HEPES pH = 7.9, 10 mM KCl, 0.1 mM EDTA, 0.1 mM EGTA, protease inhibitor mix (Sigma-Aldrich)). After adding Nonidet P-40 (NP-40) (Sigma, Taufkirchen, Germany) to a final concentration of 1%, the cell suspensions were vortexed and subsequently centrifuged at 13000 g and 4°C for 30 seconds. The pellets were re-suspended in buffer B (buffer A + 400 mM NaCl, 1% NP-40) and gently agitated using a Sarmix M2000 (Sarstedt, Nümbrecht, Germany) at 4°C for 15 min, followed by centrifugation (13000 g, 4°C, 5 min; Microfuge; Eppendorf, Hamburg, Germany). The concentration of soluble protein was determined according to Bradford using the Bio-Rad Protein Assay (Bio-Rad Laboratories, Munich, Germany).
An amount of 30 μg total protein of each sample and 8 μL of a biotinylated molecular weight standard (1:6 dilution) (Cell Signaling, Danvers, MA, USA) was separated by SDS-PAGE (12% gel) and afterwards electroblotted (150 V, 30 min) to nitrocellulose membrane (Peqlab, Erlangen, Germany). To prevent unspecific binding, the membranes were treated with milk powder (5% (m/v) in buffer (150 mM NaCl, 20 mM Tris, 0.1% Tween 20, pH = 7.6)) before incubation with anti-p53 rabbit mAb (dilution 1:1000) (Cell Signaling) and anti-histone H2B Ab (dilution 1:1000) (Cell Signaling) as loading control at 4°C for 14 hours. The primary antibodies and the “protein ladder” were simultaneously detected with a horseradish peroxidase (HRP)-coupled donkey anti rabbit mAb (dilution 1:1000) (Santa Cruz biotechnology, Heidelberg, Germany) or the anti-biotin HRP-coupled antibody (dilution 1:5000) (Cell Signaling), respectively. The incubation with the secondary antibody was performed at room temperature for 1 hour. The bands were detected by […] using the Pierce ECL Western Blotting Substrate (Thermo Scientific, Dreieich, Germany). After exposure, the x-ray film (Amersham Hyperfilm ECL, GE Healthcare, München, Germany) was developed (CAWOMAT 2000 IR, CAWO, Schrobenhausen, Germany) and analyzed using a GS-710 imaging densitometer and Quantity One V. 4 software (Bio-Rad Laboratories, Munich, Germany).

[1] = system: NCI-H460 cells (large cell lung cancer); experiment: Chemosensitivity assay (crystal violet assay), NCI-H460; conditions: 96 hours of incubation, mean ± SEM
Experimental: (§1) Depending on the characteristics of the cells, two different assays were performed. For adherently growing cells (HaCaT, HT-29, NCI-H460, SK-MEL-3, MG-63, Capan-1), cytotoxic and cytocidal effects were determined in the crystal violet assay, whereas for loosely adherent cells (LNCaP, SK-ES-1) and cells growing in suspension (HEL 92.1.7, Jurkat, U-937) the MTT-assay was used with minor modifications. In brief, 1.5 · 10^3 (HaCaT, HT-29, NCI-H460, SK-MEL-3, MG-63, Capan-1) or 5 · 10^3 (Jurkat, U-937, HEL92.1.7, LNCaP, SK-ES-1) cells per well were seeded into flat-bottom 96-well plates (Sarstedt, Nümbrecht, Germany). All compounds were used as solutions prepared in DMSO and tested at final concentrations (8 replicates per concentration) of 1, 3, 10, 30 and 50 μM. In case of the vehicle control and test compounds, the final DMSO concentration amounted to 0.1%. Absorbance was measured at 580 nm in a 96-well plate reader (GENios pro microplate reader, Tecan, Salzburg, Austria). Effects were quantified as previously described for both assays.

NCI-H460 cells = experiment: Quantification of cell-associated compound by HPLC, NCI-H460; conditions: 30 μM, 10 minutes, mean ± SEM
Experimental: (§2) Accumulation of bendamustine and selected bendamustine esters by HT-29 and NCI-H460 cells was determined by HPLC. For this purpose, 1.5 · 10^6 cells/well were seeded into 6-well plates (Sarstedt, Nümbrecht, Germany). After two days of cultivation, the cells were incubated in PBS containing 30 μM of 1, 2, 4 or 5 and 200 μM of umbelliferone as internal standard at 37°C for 10 minutes. After removing the medium, the cells were washed three times with PBS. Untreated cells were detached with trypsin/EDTA and counted. The treated cells were harvested by adding 200 μL of ice-cold perchloric acid (1 M) and scraping. Subsequently, the samples were vortexed and sonicated (Branson 3200 ultrasonic cleaner; Branson, Danbury, USA) for 10 minutes. After 5 minutes of centrifugation (13000 g, 4°C), the supernatants were filtered (0.2 μm Phenex; Phenomenex, Aschaffenburg, Germany) and directly analyzed by HPLC with fluorescence detection according to a recently reported validated procedure. The normalization of the measured concentration to the cell count allowed for a calculation of the cell-associated amount of the respective test compound. Additionally, the ratio of cell-associated substance compared to the applied concentration (30 μM) was calculated based on an average cell volume of 3 pL.

HT-29 cells = experiment: Quantification of cell-associated compound by HPLC, HT-29; conditions: 30 μM, 10 minutes; for amount of cell-associated compound: mean ± SEM
Experimental: as §2

[2] = system: MG-63 cells (osteosarcoma); experiment: Chemosensitivity assay (crystal violet assay), MG-63; conditions: for IC50: 96 hours of incubation, crystal violet assay, mean ± SEM
Experimental: as §1

[3] = system: Jurkat cells (acute T-cell leukemia); experiment: Chemosensitivity assay (MTT-assay), Jurkat; conditions: 96 hours of incubation, mean ± SEM
Experimental: as §1

[4] = system: U-937 cells (histiocytic lymphoma); experiment: Chemosensitivity assay (MTT-assay), U-937; conditions: 96 hours of incubation, mean ± SEM
Experimental: as §1

**Q.** How did the p53 expression (p53 in NCI-H460 cells; 100 μM) turn out when `Cn1c(CCCC(=O)O)nc2cc(N(CCCl)CCCl)ccc21` [Compound 1, bendamustine, reference compound] was run?
**A.** The p53 expression was “weakly induced”.

**Q.** What about the IC50 [1] of the same compound?
**A.** Its IC50 is “only very weakly active”.

**Q.** What about the IC50 ([1]; Homo sapiens, read-out: IC50) of the same compound?
**A.** The IC50 was 90 ± 4.3 µM.

**Q.** And the “amount of cell-associated compound” value (NCI-H460 cells)?
**A.** The value was 0.03 ± 0.001 nmol/10^6 cells.

**Q.** And the “amount of cell-associated compound” value (HT-29 cells)?
**A.** Its value is 0.07 ± 0.011 nmol/10^6 cells.

**Q.** What about the IC50 [2] of the same compound?
**A.** Its IC50 is 55.8 ± 1.9 µM.

**Q.** What about the IC50 ([2]; Homo sapiens, MG-63, 96 h) of the same compound?
**A.** The IC50 was ~56 µM.

**Q.** And the “concentrations with cytocidal drug effects” value ([2]; kinetic assay, long-term exposure (S6 Fig))?
**A.** The value was “above 30 μM”.

**Q.** What about the IC50 [3] of the same compound?
**A.** The IC50 was 43.4 ± 4.8 µM.

**Q.** What about the IC50 ([3]; Homo sapiens, 96 h) of the same compound?
**A.** Its IC50 is 43 µM.

**Q.** What about the IC50 [4] of the same compound?
**A.** The IC50 was 83.4 ± 8.5 µM.

**Q.** What about the IC50 ([4]; Homo sapiens, U-937, 96 h) of the same compound?
**A.** Its IC50 is > 80 µM.

**Q.** `Cn1c(CCCC(=O)OCCN2CCCC2)nc2cc(N(CCCl)CCCl)ccc21` [Compound 5] was tested. Which p53 expression (p53 in NCI-H460 cells; 10 μM) did it give?
**A.** Its p53 expression is “significantly induced”.

**Q.** What about the IC50 ([1]; Homo sapiens, read-out: IC50) of the same compound?
**A.** Its IC50 is 0.9 ± 0.01 µM.

**Q.** What about the “amount of cell-associated compound” value (NCI-H460 cells) of the same compound?
**A.** Its value is 1.89 ± 0.14 nmol/10^6 cells.

**Q.** And the “cellular enrichment relative to bendamustine” value (HT-29 cells)?
**A.** The value was “approximately 70 fold”.

**Q.** And the “amount of cell-associated compound” value (HT-29 cells)?
**A.** Its value is 5.01 ± 0.34 nmol/10^6 cells.

**Q.** What about the IC50 ([2]; Homo sapiens, MG-63, 96 h) of the same compound?
**A.** The IC50 was 0.38 ± 0.06 µM.

**Q.** And the IC50 ([3]; Homo sapiens, 96 h)?
**A.** The IC50 was 0.61 ± 0.02 µM.

**Q.** And the IC50 ([4]; Homo sapiens, U-937, 96 h)?
**A.** The IC50 was 0.83 ± 0.19 µM.

**Q.** Which p53 expression (p53 in NCI-H460 cells; 10 μM) does the source give for `Cn1c(CCCC(=O)OCCN2CCOCC2)nc2cc(N(CCCl)CCCl)ccc21` [Compound 4] here?
**A.** Its p53 expression is “significantly induced”.

**Q.** What about the IC50 ([1]; Homo sapiens, read-out: IC50) of the same compound?
**A.** Its IC50 is 9.7 ± 1.3 µM.

**Q.** What about the “amount of cell-associated compound” value (NCI-H460 cells) of the same compound?
**A.** The value was 0.59 ± 0.04 nmol/10^6 cells.

**Q.** And the “amount of cell-associated compound” value (HT-29 cells)?
**A.** Its value is 1.59 ± 0.23 nmol/10^6 cells.

**Q.** What about the IC50 ([2]; Homo sapiens, MG-63, 96 h) of the same compound?
**A.** The IC50 was 3.5 ± 0.1 µM.

**Q.** And the IC50 ([3]; Homo sapiens, 96 h)?
**A.** The IC50 was 3.2 ± 1 µM.

**Q.** What about the IC50 ([4]; Homo sapiens, U-937, 96 h) of the same compound?
**A.** Its IC50 is 3.2 ± 0.96 µM.

**Q.** With `COC(=O)CCCc1nc2cc(N(CCCl)CCCl)ccc2n1C` [Compound 2] as the compound, how does the p53 expression (p53 in NCI-H460 cells; 10 μM) read?
**A.** The p53 expression was “significantly induced”.

**Q.** And the IC50 ([1]; Homo sapiens, read-out: IC50)?
**A.** Its IC50 is 4.8 ± 0.3 µM.

**Q.** And the “amount of cell-associated compound” value (NCI-H460 cells)?
**A.** Its value is 0.28 ± 0.06 nmol/10^6 cells.

**Q.** And the “amount of cell-associated compound” value (HT-29 cells)?
**A.** The value was 2.05 ± 0.39 nmol/10^6 cells.

**Q.** What about the IC50 ([2]; Homo sapiens, MG-63, 96 h) of the same compound?
**A.** Its IC50 is 1.9 ± 0.1 µM.

**Q.** What about the IC50 ([3]; Homo sapiens, 96 h) of the same compound?
**A.** Its IC50 is 3.1 ± 0.1 µM.

**Q.** What about the IC50 ([4]; Homo sapiens, U-937, 96 h) of the same compound?
**A.** The IC50 was 1.8 ± 0.1 µM.
